Data as given in US20210247277A1, “Pretreatment Method for Fluorescent Image Diagnosis” (Goryo Chemical, Inc., priority 2018, published 2021).

Assays:
[1] = Fluorescence intensity of the probe and of its fluorescent product at each pH; assay type: physicochemical; settings: dependence on pH
Experimental: (§1) Cells cultured on glass surface were reacted with gGlu-HMRG, and fluorescence intensity was compared. HeLa cells were inoculated at the same density to chambers of a 4-chamber glass bottom dish. The cells were cultured in DMEM+8% FBS, P.S. under conditions of 37° C. and 5% CO2 for approximately 8 hours. The cells were rinsed three times with PBS(−) adjusted to pH 6.5, 7.3, or 7.8, which was then replaced with each solution supplemented with 2 μM gGlu-HMRG. The cells were stained at 37° C. under 5% CO2 for 20 minutes and observed under a fluorescence microscope under the same conditions as above without the solution replaced. 100 ms exposure, gain 5 Int 5, ND1. Fluorescence intensity from 5 cells in fluorescence images, and background fluorescence intensity were measured with reference to superimposed images with DIC, and the mean and standard deviation were plotted. The fluorescence intensity of gGlu-HMRG and the fluorescence intensity of HMRG (fluorescent substance after reaction with GGT) were measured at each pH.

[2] = tested on: lymph nodes including sentinel lymph node (breast cancer metastasis); assay: Fluorescence increase in lymph node clinical specimens resected during breast cancer surgery; settings: 50 μM in PBS
Experimental: After pretreatment of lymph node specimens resected during breast cancer surgery in PBS(−) for 0 minutes, 1 minute, 5 minutes, 10 minutes or an appropriate course of time, increases of fluorescence at 10 minutes after impregnation with a 50 μM gGlu-HMRG solution from that immediately after the impregnation are shown. A specimen diagnosed with cancer metastasis in pathological diagnosis is indicated by a filled circle, and a specimen confirmed to have no cancer metastasis is indicated by an open triangle.
Lymph nodes including sentinel lymph node excised for the purpose of pathological diagnosis during breast cancer surgery were divided and transported from the operating room to an inspection room in a state wrapped in gauze wetted with PBS. A reagent and PBS (140 mM NaCl, 2.7 mM KCl, 10 mM PO4^3−, pH=7.4) at room temperature were used. A PBS impregnated sample was impregnated with a container where PBS was placed, and continuously impregnated for 1 minute, 5 minutes, 10 minutes, or an appropriate course of time from 1 minute to 30 minutes. A PBS non-impregnated sample was stored in state wrapped in gauze wetted with PBS to prevent drying out, instead of being impregnated with PBS, and used in fluorescence measurement. The lymph nodes were carefully taken out with tweezers and put on a Petri dish, and visible images of autofluorescence were taken in a fluorescence measuring machine. 50 μM gGlu-HMRG dissolved in PBS was added to the Petri dish where the lymph nodes were placed, until the lymph nodes completely soaked therein. The fluorescence measurement was continued. The pathological diagnosis of the specimens used in this test was also conducted and checked against final results about whether cancer metastasized to each lymph node.
The fluorescence intensity was indicated by a ratio to the fluorescence intensity of a fluorescence intensity reference plate having a constant fluorescence intensity (measured fluorescence intensity/fluorescence intensity of the fluorescence intensity reference plate).

HeLa cells = assay: Influence of pH on fluorescence of HeLa cells cultured on glass surface; assay type: cell-based, human; settings: 2 μM, 20 minutes, 37° C.
Experimental: as §1

HeLa cell spheroid = assay: Quantification of probe reaction and penetration in HeLa cell spheroid (fluorescence intensity by depth); assay type: cell-based, human
Experimental: (§2) FIG. 4 illustrates a method for analyzing the penetration or reaction of reagents into or with the spheroid. When “Depth” shown in FIGS. 5 to 10 was, for example, 200 μm, the fluorescence intensity of an open region in the illustration was determined from fluorescence intensity observed by fluorescence microscope, wherein the open region has the inside circle at 200 μm inside from the outer periphery and has the outside circle at 100 μm outside from the aforementioned inside circle as shown in the drawing.
HeLa cells (human uterine cervical cancer cell line) or A549 cells (human alveolar basal epithelial adenocarcinoma cell line) were inoculated at 1×10^4 cells to Nunclon Sphera and cultured for 7 to 14 days. Each obtained spheroid was allowed to adhere to a poly-L-lysine-coated glass bottom dish over approximately 24 hours. The medium was replaced with a buffer, and the spheroid was incubated at room temperature for 10 minutes (impregnation, rinse). […] An area (ROI) having the distance from surface shown in FIG. 4 was captured with ImageJ, and increase in the average luminance between the start of measurement and 5 minutes later was analyzed. Fluorescence was also observed by impregnating with saline and addition of gGlu-HMRG dissolved in PBS(−).
(§3) The buffers used and their composition are as follows.
(§4) PBS(−): 140 mM NaCl, 2.7 mM KCl, 10 mM PO4^3− (pH=7.4) PBS(+): PBS(−) described above as well as 0.90 mM CaCl2, 0.33 mM MgCl2 (pH=7.4) PBS−Ca: PBS(−) described above as well as 0.90 mM CaCl2 (pH=7.4) PBS−Mg: PBS(−) described above as well as 0.33 mM MgCl2 (pH=7.4) PBS−EDTA: PBS(−) described above as well as 0.2 mM EDTA (pH=7.4)
(§5) To evaluate the influence of divalent ion (calcium, etc.)-dependent adhesion, fluorescence was observed under the same conditions as in Example 3 except that the following buffers were used.
(§6) (1) No pretreatment (no rinse) and impregnation with a solution of gGlu-HMRG dissolved in PBS(−) (2) Pretreatment by Impregnating with PBS(−) (3) Pretreatment by Impregnating with PBS(+) (4) Pretreatment by impregnating with PBS(−)+0.2 mM EDTA

A549 cell spheroid = assay: Quantification of probe reaction and penetration in A549 cell spheroid (fluorescence intensity by depth); assay type: cell-based, human
Experimental: as §2
HeLa cells (human uterine cervical cancer cell line) or A549 cells (human alveolar basal epithelial adenocarcinoma cell line) were inoculated at 1×10^4 cells to Nunclon Sphera and cultured for 7 to 14 days. Each obtained spheroid was allowed to adhere to a poly-L-lysine-coated glass bottom dish over approximately 24 hours. The medium was replaced with a buffer, and the spheroid was incubated at room temperature for 10 minutes (impregnation, rinse). The buffer in the dish was replaced with each buffer containing gGlu-HMRG dissolved to attain a final concentration of 0.1 μM (A549 cells) or 1 μM (HeLa cells), followed by observation under a fluorescence microscope (Leica DMI 6000 CS, lens: 10×, filter Leica L5, ex. 460 to 500 nm, em. 512 to 542 nm). An area (ROI) having the distance from surface shown in FIG. 4 was captured with ImageJ, and increase in the average luminance between the start of measurement and 5 minutes later was analyzed. Fluorescence was also observed by impregnating with saline and addition of gGlu-HMRG dissolved in PBS(−).
as §3, §4, §5, §6
Fluorescence was measured by the same method as in Example 3 except that a 5 μM FeRhoNox-1 probe was used instead of gGlu-HMRG as the fluorescent probe. The cells used were only A549 cells.

HeLa cells spheroid = assay: Time-dependent fluorescence intensity in HeLa cell spheroid (fluorescence microscope); assay type: cell-based, human; settings: 1 μM; washed with HBSS and probe in HBSS, compared with PBS(−) 10 min and probe in PBS(−)
Experimental: Time-dependent changes in fluorescence intensity are shown for a HeLa cells spheroid which was washed with HBSS and then impregnated with a 1 μM solution of gGlu-HMRG dissolved in HBSS (upper), and for a HeLa cells spheroid which was impregnated with PBS(−) for 10 minutes and then impregnated with a 1 μM solution of gGlu-HMRG dissolved in PBS(−) (lower).
HeLa cells were inoculated at 10^5 cells/well and cultured for 4 to 6 days. The obtained spheroid was put on a glass bottom dish and cultured for about 3 hours. Then, the culture solution was removed, and the spheroid was impregnated with PBS(−) for 10 minutes. A control was washed with HBSS without being impregnated with PBS(−). A 1 μM solution of gGlu-HMRG dissolved in PBS(−) or HBSS was added to the spheroid impregnated with PBS(−) or the control spheroid. Each spheroid immediately (0 minutes), 10 minutes, 20 minutes, 30 minutes, and 60 minutes after addition of the gGlu-HMRG solution was photographed under a fluorescence microscope (Leica DMI 6000 CS, lens: 10×, filter Leica L5, excitation wavelength: 460 to 500 nm, fluorescence wavelength: 512 to 542 nm). Transmitted light images of the spheroid were taken 10 minutes after impregnated with PBS(−).

[3] = PBS(−) + 0.2 mM EDTA, compared with PBS(−)

**Q.** With `Nc1ccc2c(c1)Oc1cc(N)ccc1C21OCc2ccccc21` [HMRG] as the molecule, how does the “Fluorescence intensity at each pH” value [1] read?
**A.** decreased with the elevation of pH

**Q.** For `Nc1ccc2c(c1)Oc1cc(NC(=O)CC[C@H](N)C(=O)O)ccc1C21OCc2ccccc21` (stereo partly shown) [gGlu-HMRG], which “Increase in fluorescence intensity in the lymph nodes 10 minutes after the start of measurement” value (from here on “Increase in fluorescence intensity”) ([2]; 5 specimens confirmed to have no cancer metastasis in pathological diagnosis) is on record?
**A.** little fluorescence increase

**Q.** And the “Increase in fluorescence intensity” value ([2]; some specimens confirmed to have cancer, without impregnation with PBS)?
**A.** only weak fluorescence

**Q.** And the “Increase in fluorescence intensity” value ([2]; specimens confirmed to have cancer, impregnated with PBS (regardless of impregnating time))?
**A.** strong fluorescence

**Q.** And the “Fluorescence intensity at each pH” value [1]?
**A.** decreased with the elevation of pH

**Q.** What about the “Fluorescence intensity of cells and background” value (HeLa cells; PBS(−) at lower pH (pH 6.5, 7.3, 7.8 tested)) of the same molecule?
**A.** lower pH decreased a signal and increased a background

**Q.** And the “Fluorescence intensity of cells” value (HeLa cells; PBS(−) at pH of 7.3 or higher)?
**A.** increased signal intensity

**Q.** What about the “Increase of fluorescence by distance from surface, 5 minutes” value (“Increase of fluorescence by distance” for short) (HeLa cell spheroid; [3]) of the same molecule?
**A.** further accelerated the increase of fluorescence

**Q.** What about the “Increase of fluorescence by distance” value (HeLa cell spheroid; PBS(−) impregnation 10 minutes, probe in PBS(−), compared with HBSS without wash) of the same molecule?
**A.** increase of fluorescence was mora rapid

**Q.** What about the “Increase of fluorescence by distance” value (HeLa cell spheroid; PBS(−) impregnation compared with no impregnation or PBS(+)) of the same molecule?
**A.** accelerated the increase of fluorescence at a location distant from surface

**Q.** What about the “Increase of fluorescence by distance” value (HeLa cell spheroid; probe in HBSS, no buffer wash, 1 μM, 50 μM (FIG. 5 legend)) of the same molecule?
**A.** increase of fluorescence was slowed with the increasing distance from surface

**Q.** And the “Increase rate of fluorescence, 5 minutes” value (A549 cell spheroid; PBS(+) impregnation)?
**A.** almost equivalent to that of no impregnation

**Q.** And the “Increase of fluorescence intensity by depth, 5 minutes” value (A549 cell spheroid; [3])?
**A.** larger increase of fluorescence intensity at a site deeper from surface

**Q.** And the “Increase rate of fluorescence intensity, 5 minutes” value (A549 cell spheroid; PBS(−) impregnating treatment 10 min compared with PBS(+), 0.1 μM, 50 μM (FIG. 6 legend))?
**A.** accelerated the increase rate of fluorescence intensity

**Q.** And the “Increase rate of fluorescence intensity, 5 minutes” value (A549 cell spheroid; PBS−Ca (PBS(−) + 0.90 mM CaCl2) 10 min, as in PBS(+))?
**A.** less increased fluorescence

**Q.** And the “Increase rate of fluorescence intensity, 5 minutes” value (A549 cell spheroid; PBS−Mg (PBS(−) + 0.33 mM MgCl2) 10 min)?
**A.** Substantially the same results as those of PBS(−)

**Q.** What about the “Increase of fluorescence intensity, 5 minutes” value (A549 cell spheroid; saline (154 mM NaCl) 10 min) of the same molecule?
**A.** increase of fluorescence intensity was slow

**Q.** And the “Increase of fluorescence in the spheroid over 0-60 minutes” value (HeLa cells spheroid)?
**A.** slower increase of fluorescence in the central portion of the spheroid

**Q.** With FeRhoNox-1 as the molecule, how does the “Fluorescence intensity distribution by pretreatment solution, 5 minutes” value (A549 cell spheroid; 5 μM probe, PBS−, PBS+, PBS+Ca or PBS+EDTA 10 min) read?
**A.** same tendency as that obtained using gGlu-HMRG
